Structures are written as SMILES.

The target in assay [1] is T1, Androgen receptor (Rattus norvegicus, UniProt P15207).
T1 sequence (P15207 whole entry): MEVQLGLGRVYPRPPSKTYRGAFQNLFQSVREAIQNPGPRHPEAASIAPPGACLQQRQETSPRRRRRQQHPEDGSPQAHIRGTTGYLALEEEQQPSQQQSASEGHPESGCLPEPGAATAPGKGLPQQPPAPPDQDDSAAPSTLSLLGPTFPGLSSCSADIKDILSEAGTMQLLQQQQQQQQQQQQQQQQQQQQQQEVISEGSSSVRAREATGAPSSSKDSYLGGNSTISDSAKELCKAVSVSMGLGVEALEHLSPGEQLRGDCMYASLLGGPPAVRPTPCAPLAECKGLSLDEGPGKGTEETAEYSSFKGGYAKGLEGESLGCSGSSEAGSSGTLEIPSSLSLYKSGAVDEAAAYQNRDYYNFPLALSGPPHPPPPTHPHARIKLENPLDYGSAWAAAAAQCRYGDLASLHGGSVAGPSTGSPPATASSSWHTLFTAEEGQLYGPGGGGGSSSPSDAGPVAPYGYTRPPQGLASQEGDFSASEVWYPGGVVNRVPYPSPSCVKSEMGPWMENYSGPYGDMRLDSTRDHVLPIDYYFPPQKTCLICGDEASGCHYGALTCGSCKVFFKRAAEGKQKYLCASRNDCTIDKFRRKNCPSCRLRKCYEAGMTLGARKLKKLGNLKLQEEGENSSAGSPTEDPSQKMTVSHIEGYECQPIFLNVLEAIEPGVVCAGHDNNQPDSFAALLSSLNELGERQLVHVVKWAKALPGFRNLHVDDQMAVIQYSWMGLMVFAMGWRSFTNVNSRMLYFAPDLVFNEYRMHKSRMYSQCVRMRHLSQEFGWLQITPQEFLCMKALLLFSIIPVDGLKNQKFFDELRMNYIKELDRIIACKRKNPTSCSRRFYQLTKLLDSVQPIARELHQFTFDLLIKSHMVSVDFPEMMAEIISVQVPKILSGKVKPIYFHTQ
The assay is classed as functional.

The target in assay [2] is Sodium channel protein type 5 subunit alpha (Homo sapiens, UniProt Q14524). The assay is classed as functional, cell-based.
In assay [3] the target is T2, Estrogen receptor (Homo sapiens, UniProt P03372).
T2 sequence (P03372 whole entry): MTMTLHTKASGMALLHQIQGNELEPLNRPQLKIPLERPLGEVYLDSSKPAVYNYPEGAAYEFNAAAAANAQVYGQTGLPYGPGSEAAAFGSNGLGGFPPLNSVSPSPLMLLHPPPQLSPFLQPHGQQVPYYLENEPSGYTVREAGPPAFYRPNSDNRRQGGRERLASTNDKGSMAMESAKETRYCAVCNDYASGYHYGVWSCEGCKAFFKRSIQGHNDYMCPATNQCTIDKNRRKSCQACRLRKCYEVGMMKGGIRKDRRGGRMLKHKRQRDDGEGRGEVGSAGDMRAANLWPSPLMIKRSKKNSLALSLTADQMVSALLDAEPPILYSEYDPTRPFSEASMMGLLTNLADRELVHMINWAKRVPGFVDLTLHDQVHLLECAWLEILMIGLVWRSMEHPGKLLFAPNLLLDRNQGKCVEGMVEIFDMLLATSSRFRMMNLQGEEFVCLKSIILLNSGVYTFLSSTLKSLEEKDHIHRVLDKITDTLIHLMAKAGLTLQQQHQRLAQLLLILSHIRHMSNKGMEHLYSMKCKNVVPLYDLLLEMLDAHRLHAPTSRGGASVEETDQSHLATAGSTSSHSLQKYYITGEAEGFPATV
The assay is classed as functional.

The target in assay [4] is Cannabinoid receptor 1 (Homo sapiens, UniProt P21554). The assay is classed as functional.
Assay [5] concerns the target T3, D(4) dopamine receptor (Homo sapiens, UniProt P21917).
T3 sequence (P21917 whole entry): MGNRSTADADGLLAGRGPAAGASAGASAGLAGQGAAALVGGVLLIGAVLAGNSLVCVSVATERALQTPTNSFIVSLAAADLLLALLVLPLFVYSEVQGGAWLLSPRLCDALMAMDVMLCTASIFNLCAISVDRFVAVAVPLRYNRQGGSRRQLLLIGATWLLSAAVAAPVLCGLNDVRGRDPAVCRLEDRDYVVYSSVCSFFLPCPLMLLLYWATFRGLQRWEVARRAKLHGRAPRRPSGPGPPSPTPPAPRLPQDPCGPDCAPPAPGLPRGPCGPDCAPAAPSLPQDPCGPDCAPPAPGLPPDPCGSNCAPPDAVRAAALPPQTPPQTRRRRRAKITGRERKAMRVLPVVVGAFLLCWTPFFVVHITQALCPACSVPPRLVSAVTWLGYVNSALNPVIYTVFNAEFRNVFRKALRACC

In assay [6] the target is D(1A) dopamine receptor (Homo sapiens, UniProt P21728).
Assay [7] has as its target 5-hydroxytryptamine receptor 7 (Homo sapiens, UniProt P34969).
Assay [8] addresses T4, Corticotropin-releasing factor receptor 1 (Homo sapiens, UniProt P34998).
T4 sequence (P34998 whole entry): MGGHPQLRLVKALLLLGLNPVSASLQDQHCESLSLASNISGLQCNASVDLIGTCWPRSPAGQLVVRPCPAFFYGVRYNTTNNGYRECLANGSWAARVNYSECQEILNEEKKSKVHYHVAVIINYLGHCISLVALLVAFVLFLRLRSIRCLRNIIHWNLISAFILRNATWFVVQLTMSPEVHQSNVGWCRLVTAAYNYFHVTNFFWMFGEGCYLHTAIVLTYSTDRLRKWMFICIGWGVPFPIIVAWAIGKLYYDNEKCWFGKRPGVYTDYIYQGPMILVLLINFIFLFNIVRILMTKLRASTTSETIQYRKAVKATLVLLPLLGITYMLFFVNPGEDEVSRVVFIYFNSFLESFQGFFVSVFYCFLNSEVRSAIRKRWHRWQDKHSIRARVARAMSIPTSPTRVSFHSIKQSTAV

The target in assay [9] is Substance-P receptor (Homo sapiens, UniProt P25103).
Also: assay procedure not described here.

Sodium channel protein type 5 subunit alpha, sequence (Q14524 whole entry): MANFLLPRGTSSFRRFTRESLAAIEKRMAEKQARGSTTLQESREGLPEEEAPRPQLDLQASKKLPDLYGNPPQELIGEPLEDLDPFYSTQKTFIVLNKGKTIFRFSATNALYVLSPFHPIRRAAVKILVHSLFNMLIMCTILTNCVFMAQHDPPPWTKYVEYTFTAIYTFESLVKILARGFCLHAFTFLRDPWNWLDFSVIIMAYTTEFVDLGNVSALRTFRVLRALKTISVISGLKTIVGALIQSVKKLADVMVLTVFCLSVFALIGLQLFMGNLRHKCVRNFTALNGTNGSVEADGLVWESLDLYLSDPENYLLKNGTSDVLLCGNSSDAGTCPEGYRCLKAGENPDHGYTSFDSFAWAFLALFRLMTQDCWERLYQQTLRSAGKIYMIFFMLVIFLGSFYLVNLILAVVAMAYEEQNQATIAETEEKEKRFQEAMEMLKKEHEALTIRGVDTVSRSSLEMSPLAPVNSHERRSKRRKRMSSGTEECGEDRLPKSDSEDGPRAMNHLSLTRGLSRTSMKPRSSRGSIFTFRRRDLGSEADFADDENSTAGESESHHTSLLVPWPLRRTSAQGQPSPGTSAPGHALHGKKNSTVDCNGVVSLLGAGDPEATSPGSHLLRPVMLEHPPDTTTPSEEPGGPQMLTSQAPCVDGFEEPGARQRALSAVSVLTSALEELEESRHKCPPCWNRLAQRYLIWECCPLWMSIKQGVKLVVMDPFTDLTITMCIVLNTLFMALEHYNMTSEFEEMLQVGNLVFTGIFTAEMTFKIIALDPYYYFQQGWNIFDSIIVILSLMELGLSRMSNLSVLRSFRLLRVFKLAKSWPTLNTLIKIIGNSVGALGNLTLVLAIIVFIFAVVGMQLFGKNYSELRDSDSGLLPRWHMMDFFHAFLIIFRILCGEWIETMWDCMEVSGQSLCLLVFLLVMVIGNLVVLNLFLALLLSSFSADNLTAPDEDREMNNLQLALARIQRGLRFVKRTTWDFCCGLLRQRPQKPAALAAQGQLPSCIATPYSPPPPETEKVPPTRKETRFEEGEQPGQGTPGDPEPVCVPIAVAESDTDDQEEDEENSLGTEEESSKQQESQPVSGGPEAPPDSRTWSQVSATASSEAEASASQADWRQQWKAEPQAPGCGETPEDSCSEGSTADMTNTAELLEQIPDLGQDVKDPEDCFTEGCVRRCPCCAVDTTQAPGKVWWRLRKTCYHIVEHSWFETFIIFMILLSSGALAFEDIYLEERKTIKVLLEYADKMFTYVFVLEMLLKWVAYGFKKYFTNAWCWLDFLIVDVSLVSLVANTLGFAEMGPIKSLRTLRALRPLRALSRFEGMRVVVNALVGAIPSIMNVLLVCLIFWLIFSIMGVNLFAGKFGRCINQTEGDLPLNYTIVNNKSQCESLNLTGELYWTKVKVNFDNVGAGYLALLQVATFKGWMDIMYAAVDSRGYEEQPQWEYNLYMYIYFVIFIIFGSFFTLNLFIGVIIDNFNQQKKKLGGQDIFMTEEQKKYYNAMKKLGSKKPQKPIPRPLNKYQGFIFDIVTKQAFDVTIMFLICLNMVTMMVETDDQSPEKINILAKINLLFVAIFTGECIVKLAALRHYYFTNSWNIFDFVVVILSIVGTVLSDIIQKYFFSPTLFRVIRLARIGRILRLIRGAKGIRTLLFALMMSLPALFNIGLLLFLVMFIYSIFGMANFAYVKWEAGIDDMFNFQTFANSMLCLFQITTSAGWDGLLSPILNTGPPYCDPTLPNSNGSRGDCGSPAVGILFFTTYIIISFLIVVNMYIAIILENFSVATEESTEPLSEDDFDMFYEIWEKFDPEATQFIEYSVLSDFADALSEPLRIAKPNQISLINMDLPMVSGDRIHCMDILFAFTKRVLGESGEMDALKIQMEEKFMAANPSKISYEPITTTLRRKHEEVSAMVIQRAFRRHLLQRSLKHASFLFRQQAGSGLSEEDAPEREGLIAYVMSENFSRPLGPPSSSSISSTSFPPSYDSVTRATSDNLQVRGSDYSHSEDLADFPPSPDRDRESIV
D(1A) dopamine receptor, sequence (P21728 whole entry): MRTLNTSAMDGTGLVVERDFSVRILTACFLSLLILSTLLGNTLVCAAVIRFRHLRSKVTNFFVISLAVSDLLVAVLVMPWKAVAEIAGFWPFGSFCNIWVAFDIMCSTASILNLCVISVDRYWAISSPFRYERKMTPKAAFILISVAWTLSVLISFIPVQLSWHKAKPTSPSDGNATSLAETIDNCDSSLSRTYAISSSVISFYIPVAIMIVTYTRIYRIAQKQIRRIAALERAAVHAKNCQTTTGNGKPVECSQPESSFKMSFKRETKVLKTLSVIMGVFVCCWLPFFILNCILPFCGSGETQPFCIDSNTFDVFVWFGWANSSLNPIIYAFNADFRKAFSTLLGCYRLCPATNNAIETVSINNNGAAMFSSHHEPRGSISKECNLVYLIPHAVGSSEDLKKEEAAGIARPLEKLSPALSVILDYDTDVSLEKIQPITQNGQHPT
Substance-P receptor, sequence (P25103 whole entry): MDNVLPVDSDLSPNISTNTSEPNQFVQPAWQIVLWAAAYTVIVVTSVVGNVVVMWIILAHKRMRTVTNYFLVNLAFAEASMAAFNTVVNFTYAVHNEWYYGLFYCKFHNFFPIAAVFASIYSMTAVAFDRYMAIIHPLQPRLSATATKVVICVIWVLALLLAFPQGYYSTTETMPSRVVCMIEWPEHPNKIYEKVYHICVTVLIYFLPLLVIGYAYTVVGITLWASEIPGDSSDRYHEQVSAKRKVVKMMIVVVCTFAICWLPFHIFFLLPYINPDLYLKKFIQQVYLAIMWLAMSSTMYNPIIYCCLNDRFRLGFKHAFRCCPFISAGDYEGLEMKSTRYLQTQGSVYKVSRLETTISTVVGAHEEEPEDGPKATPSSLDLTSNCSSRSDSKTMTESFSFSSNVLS
Cannabinoid receptor 1, sequence (P21554 whole entry): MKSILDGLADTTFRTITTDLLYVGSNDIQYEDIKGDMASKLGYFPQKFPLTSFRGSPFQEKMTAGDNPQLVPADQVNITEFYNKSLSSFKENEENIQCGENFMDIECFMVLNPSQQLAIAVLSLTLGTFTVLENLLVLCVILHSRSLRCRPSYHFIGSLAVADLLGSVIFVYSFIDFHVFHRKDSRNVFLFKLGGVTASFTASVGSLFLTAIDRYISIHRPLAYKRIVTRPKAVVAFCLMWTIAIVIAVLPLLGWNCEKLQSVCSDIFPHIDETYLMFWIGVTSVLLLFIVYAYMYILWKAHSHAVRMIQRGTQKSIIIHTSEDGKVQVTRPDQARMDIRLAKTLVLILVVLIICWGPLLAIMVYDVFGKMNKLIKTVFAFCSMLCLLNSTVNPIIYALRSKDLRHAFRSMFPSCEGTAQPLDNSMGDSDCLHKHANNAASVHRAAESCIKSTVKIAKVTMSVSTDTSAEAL
5-hydroxytryptamine receptor 7, sequence (P34969 whole entry): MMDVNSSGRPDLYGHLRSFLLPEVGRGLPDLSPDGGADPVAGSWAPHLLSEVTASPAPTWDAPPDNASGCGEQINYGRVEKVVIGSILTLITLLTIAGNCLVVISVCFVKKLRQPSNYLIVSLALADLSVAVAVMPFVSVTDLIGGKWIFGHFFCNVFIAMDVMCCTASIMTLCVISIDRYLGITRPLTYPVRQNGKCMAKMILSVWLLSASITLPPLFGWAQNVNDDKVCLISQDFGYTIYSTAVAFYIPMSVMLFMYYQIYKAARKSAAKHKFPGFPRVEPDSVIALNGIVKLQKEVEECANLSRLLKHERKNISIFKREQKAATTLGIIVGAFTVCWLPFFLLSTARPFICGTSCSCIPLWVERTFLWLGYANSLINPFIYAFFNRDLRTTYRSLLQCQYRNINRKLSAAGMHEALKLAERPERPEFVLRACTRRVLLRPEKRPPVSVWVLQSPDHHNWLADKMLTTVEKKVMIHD

Usually AC50 stands for the concentration giving half of the maximal activity seen. Low values mean greater potency, high ones weaker potency. Regarding `C[C@@H](NCCCc1cccc(C(F)(F)F)c1)c1cccc2ccccc12`, in assay [1], the AC50 is over 30 µM.

Compound `COc1ccc(CC2c3cc(OC)c(OC)cc3CC[N+]2(C)CCC(=O)OCCCCCOC(=O)CC[N+]2(C)CCc3cc(OC)c(OC)cc3C2Cc2ccc(OC)c(OC)c2)cc1OC` (stereo not given) returned an AC50 in assay [1] of over 30 µM.

For the compound `CCN1CCN(Cc2ccc(Nc3ncc(F)c(-c4cc(F)c5nc(C)n(C(C)C)c5c4)n3)nc2)CC1` [ABEMACICLIB], the half-maximal activity concentration (AC50) in [2] is over 50 µM; in assay [3], over 30 µM; in [1], over 30 µM.

In the case of `CCCN(CCC)C(=O)Cc1c(-c2ccc(Cl)cc2)nc2ccc(Cl)cn12` [ALPIDEM], the AC50 in assay [4], in [5], in [6] and in [7] was over 10 µM in each case.

On to `COc1ccccc1Oc1c(NS(=O)(=O)c2ccc(C(C)(C)C)cc2)nc(-c2ncccn2)nc1OCCO` [BOSENTAN], for which the figures for the AC50 in [8] and in assay [6] were over 30 µM and over 10 µM, respectively.

Regarding `COc1cc2nccc(Oc3ccc(NC(=O)C4(C(=O)Nc5ccc(F)cc5)CC4)cc3)c2cc1OC` [CABOZANTINIB], the values for the concentration at half-maximal activity (AC50) in [2], in assay [3] and in assay [1] were over 3 µM, over 10 µM and over 30 µM, respectively.

As for `COc1ccccc1OCCNCC(O)COc1cccc2[nH]c3ccccc3c12` (stereo not given) [CARVEDILOL], the AC50 was over 10 µM in [4]; over 30 µM in assay [1]; 0.0172 µM in assay [5]; over 30 µM in assay [8]; 2.28 µM in [6]; 0.481 µM in [9]. Further, the concentration at half-maximal activity (AC50) in assay [7] came to 1.58 µM.

`O=C1CCc2cc(OCCCCc3nnnn3C3CCCCC3)ccc2N1` [CILOSTAZOL] showed a half-maximal activity concentration (AC50) in assay [2] of over 50 µM.

Take `C[C@@H](Oc1cc(-c2cnn(C3CCNCC3)c2)cnc1N)c1c(Cl)ccc(F)c1Cl` [CRIZOTINIB]: the AC50 in assay [3] is over 30 µM; in [1], over 30 µM; in [8], over 30 µM; in assay [6], over 10 µM.

With `O=C1CN(/N=C/c2ccc(-c3ccc([N+](=O)[O-])cc3)o2)C(O)=N1` [DANTROLENE], the AC50 in [2] is over 50 µM.

Regarding `CC(C)N(CCC(C(N)=O)(c1ccccc1)c1ccccn1)C(C)C` (stereo not given) [DISOPYRAMIDE], the figures for the AC50 in [2] and in [8] were over 50 µM and over 30 µM, respectively.

In the case of `C[C@H]1c2cccc(O)c2C(=O)C2=C(O)[C@]3(O)C(=O)C(C(N)=O)=C(O)[C@@H](N(C)C)[C@@H]3[C@@H](O)[C@@H]21` [DOXYCYCLINE], the concentration at half-maximal activity (AC50) in assay [5] is over 10 µM; in [8], over 30 µM; in [6], over 10 µM; in [9], over 10 µM.

With `OC[C@H]1O[C@@H](c2ccc(Cl)c(Cc3ccc(O[C@H]4CCOC4)cc3)c2)[C@H](O)[C@@H](O)[C@@H]1O` [EMPAGLIFLOZIN], the AC50 in assay [2] is over 50 µM.

As for `CN1C[C@H](C(=O)N[C@]2(C)O[C@@]3(O)[C@@H]4CCCN4C(=O)[C@H](Cc4ccccc4)N3C2=O)C=C2c3cccc4[nH]cc(c34)C[C@H]21` [ERGOTAMINE], the AC50 in [3] was over 30 µM.

As for `CC(C)Cc1ccc(C(C)C(=O)O)cc1` (stereo not given) [IBUPROFEN], the AC50 in [4] is over 10 µM; in [5], over 10 µM; in assay [8], over 30 µM; in [6], over 10 µM; in assay [9], over 10 µM; in assay [7], over 10 µM.

Turning to `CC(=O)O[C@]1(C(C)=O)CC[C@H]2[C@@H]3C=C(C)C4=CC(=O)CC[C@@H]4[C@H]3CC[C@@]21C` [NOMEGESTROL ACETATE], in assay [1], the half-maximal activity concentration (AC50) is over 30 µM.

In the case of `CO[C@H]1/C=C/O[C@@]2(C)Oc3c(C)c(O)c4c(O)c(c(/C=N/N5CCN(C)CC5)c(O)c4c3C2=O)NC(=O)/C(C)=C\C=C\[C@H](C)[C@H](O)[C@@H](C)[C@@H](O)[C@@H](C)[C@H](OC(C)=O)[C@@H]1C` [RIFAMPIN], the concentration at half-maximal activity (AC50) in [4] was over 10 µM; in assay [5], over 10 µM; in assay [8] it was over 30 µM; in assay [6], over 10 µM; in assay [7], over 10 µM.

Regarding `CN(C)CCc1c[nH]c2ccc(Cn3cncn3)cc12` [RIZATRIPTAN], the half-maximal activity concentration (AC50) in [2] is over 30 µM; in assay [4], over 10 µM; in assay [5], over 10 µM; in assay [8] it was over 30 µM; in [6], over 10 µM; in assay [9], over 10 µM. This compound also showed a concentration at half-maximal activity (AC50) in assay [7] of over 10 µM.

Consider `CC(C)c1nc(N(C)S(C)(=O)=O)nc(-c2ccc(F)cc2)c1/C=C/[C@@H](O)C[C@@H](O)CC(=O)O` [ROSUVASTATIN], for which, in [3], the half-maximal activity concentration (AC50) was over 30 µM.

On to `Nc1ccc(S(=O)(=O)Nc2nccs2)cc1` [SULFATHIAZOLE], for which the concentration at half-maximal activity (AC50) in assay [5] was over 10 µM; in assay [8], over 30 µM; in assay [6], over 10 µM; in assay [9], over 10 µM.

Regarding `CCN(CC)CCNC(=O)c1c(C)[nH]c(/C=C2\C(=O)Nc3ccc(F)cc32)c1C` [SUNITINIB], the half-maximal activity concentration (AC50) in [1] is 5.9 µM; in assay [5] it was 0.108 µM; in assay [7], over 30 µM.

With `COc1cc2nc(N3CCN(C(=O)C4CCCO4)CC3)nc(N)c2cc1OC` (stereo not given) [TERAZOSIN], the concentration at half-maximal activity (AC50) was over 10 µM in [5], over 30 µM in assay [8], over 10 µM in assay [6] and over 10 µM in [9].

Regarding `CC(S)C(=O)NCC(=O)O` (stereo not given) [TIOPRONIN], the AC50 in assay [1] is over 30 µM.

Regarding `C[C@H](CCC(=O)O)[C@H]1CC[C@H]2[C@@H]3[C@@H](O)C[C@@H]4C[C@H](O)CC[C@]4(C)[C@H]3CC[C@]12C` [URSODIOL], the AC50 in assay [3] was over 30 µM.

With `Cc1onc(-c2ccccc2)c1-c1ccc(S(N)(=O)=O)cc1` [VALDECOXIB], the AC50 in assay [4] was over 10 µM; in assay [5], over 10 µM; in assay [8], over 30 µM; in [6], over 10 µM; in assay [9] it was over 10 µM; in assay [7] it was over 10 µM.

On to `CCCC(CCC)C(=O)O` [VALPROIC ACID], for which the AC50 in [4] was over 10 µM; in assay [5] it was over 10 µM; in [8], over 30 µM; in [6] it was over 10 µM; in assay [9] it was over 10 µM; in assay [7], over 10 µM.

The values above are taken from ChEMBL document CHEMBL5291721, “A preclinical secondary pharmacology resource illuminates target-adverse drug reaction associations of marketed drugs” (Nat Commun, 2023).
